Measured values from PMC12643509, “High-throughput screens identify genotype-specific therapeutics for channelopathies” (JCI Insight, 2025).
Several values for one entry are separate records, joined by “and”; a condition that tells them apart may be missing. Identical values can stand only once.

Test system: C57BL/6J mice
Assay: Mouse ECG analysis (cardiac safety)
Type: in vivo
Set-up: QTc / QT: unit not given here
[1] = mouse ECG, individual animals (Figure S5)
[2] = mouse ECG, individual animals (Figure S5), in ms (unit assumed)

**Q.** With `Cc1cc(C)c2c(c1)[C@@H](N(Cc1cc(C(F)(F)F)cc(C(F)(F)F)c1)c1nnn(C)n1)CCCN2C[C@H]1CC[C@H](C(=O)O)CC1` [Evacetrapib, evacetrapib] as the compound, how does the “ECG parameters, including the QT interval” value (mice, 40 mg/kg intraperitoneally, 30 minutes post-drug) read?
**A.** The value was “No significant differences”.

**Q.** What about the P duration [1] of the same compound?
**A.** Its P duration is 13.6667 and 11.3333 and 10.6667 and 11.6667 and 9 and 13.3333 and 12.3333.

**Q.** What about the PR interval [1] of the same compound?
**A.** Its PR interval is 56.3333 and 38.3333 and 42.3333 and 46.6667 and 44.6667 and 41.6667.

**Q.** What about the QT [1] of the same compound?
**A.** The QT was 31.3333 and 39.3333 and 34 and 35.3333 and 42.3333.

**Q.** What about the QTc [1] of the same compound?
**A.** Its QTc is 30.5782 and 35.4177 and 28.9078 and 33.1412 and 36.2561 and 31.0292 and 33.811.

**Q.** And the QRS [2]?
**A.** The QRS was 12 and 11 and 10.6667 and 10.3333.

**Q.** What about the RR [2] of the same compound?
**A.** The RR was 105 and 123.333 and 138.333 and 113.667 and 136.333 and 129.667 and 135.333.
